The source of these data is patent US11065253B2, “Arylquinazolines” (Merck Patent GmbH, priority 2013, dated 2021).

The subject of the first experiment is phospho-serine 2056 DNA-PK in HCT116 cells. Briefly: DNA-PK phosphorylation at serine 2056 (cellular), ELISA in bleomycin-treated HCT116 cells. Format: cell-based. The following applies: Homo sapiens, HCT-116, 6 h, cellular; HCT116 cells, 10 μM bleomycin, six hours; read-out: IC50 pDNA-PK. The method in brief:
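Chemiluminescent ELISA read-out; phospho-specific signal normalised to total DNA-PKcs. Cells (HCT116) exposed 6 h to test compound plus 10 μM bleomycin to induce double-strand breaks; DMSO control served as blank.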
With `COc1ccc([C@H](O)c2ccc(F)c(-c3ncnc4cc(N5CCOCC5)ccc34)c2)nn1` [Example 71, (R)-[4-Fluoro-3-(7-morpholin-4-yl-quinazolin-4-yl)phenyl]-(6-methoxypyridazin-3-yl)methanol], the IC50 is 0.5 to 5 µM. For `COc1ccc(C(OC)c2ccc(F)c(-c3ncnc4cc(N5CCOCC5)ccc34)c2)nn1` (stereo not drawn) [Example 73, 4-{2-Fluoro-5-[methoxy-(6-methoxy-pyridazin-3-yl)methyl]phenyl}-7-morpholin-4-yl-quinazoline], the IC50 lay within 0.5 to 5 µM. On the same count and under the same terms, to `O=c1ccc(C(O)c2cc(-c3ncnc4cc(N5CCOCC5)ccc34)c(F)cc2Cl)n[nH]1` (stereo not drawn) [Example 92, 3-[[2-Chloro-4-fluoro-5-(7-morpholino-quinazolin-4-yl)phenyl]-hydroxymethyl]-1H-pyridazin-6-one] belongs < 0.5 µM.

Take `COc1nccnc1C(O)c1ccc(F)c(-c2ncnc3cc(N4CCOCC4)ccc23)c1` (stereo not drawn) [Example 15, [4-Fluoro-3-(7-morpholin-4-yl-quinazolin-4-yl)phenyl]-(3-methoxy-pyrazin-2-yl)methanol]: the IC50 is < 0.5 µM. Still for that read-out and setting: to `Cn1c(C(O)c2ccc(F)c(-c3ncnc4cc(N5CCOCC5)ccc34)c2)cccc1=O` (stereo not drawn) [Example 91, 6-{[4-Fluoro-3-(7-morpholin-4-yl-quinazolin-4-yl)-phenyl]hydroxy-methyl}-1-methyl-1H-pyridin-2-one] belongs < 0.5 µM; to `OC(c1ccc(F)c(-c2ncnc3cc(N4CCOCC4)ccc23)c1)c1nccnc1N1CCCC1` (stereo not drawn) [Example 14, [4-Fluoro-3-(7-morpholin-4-yl-quinazolin-4-yl)phenyl]-(3-pyrrolidin-1-yl-pyrazin-2-yl)methanol], 0.5 to 5 µM. Same read-out and setting: to `OC(c1ccc(Cl)nn1)c1cc(-c2ncnc3cc(N4CCOCC4)ccc23)c(F)cc1Cl` (stereo not drawn) [Example 41, [2-Chloro-4-fluoro-5-(7-morpholin-4-yl-quinazolin-4-yl)phenyl]-(6-chloro-pyridazin-3-yl)methanol] belongs < 0.5 µM; to `OC(c1ccc(F)c(-c2ncnc3cc(N4CCOCC4)ccc23)c1)c1ncccc1Cl` (stereo not drawn) [Example 42, (3-Chloro-pyridin-2-yl)-[4-fluoro-3-(7-morpholin-4-yl-quinazolin-4-yl)phenyl]-methanol], < 0.5 µM. On the same count and under the same terms, with `OC(c1ccnnc1)c1cc(-c2ncnc3cc(N4CCOCC4)ccc23)c(F)cc1Cl` (stereo not drawn) [Example 36, [2-Chloro-4-fluoro-5-(7-morpholin-4-yl-quinazolin-4-yl)phenyl]-pyridazin-4-ylmethanol] the figure was < 0.5 µM.

The experiment is the same for the next values; noted with them: Homo sapiens, HCT-116, cellular DNA-PK phosphorylation at serine 2056, HCT116 cells; read-out: IC50 pDNA-PK.
Turning to `Cn1c(C(O)c2cc(-c3ncnc4cc(N5CCOCC5)ccc34)c(F)cc2F)cccc1=O` (stereo not drawn) [Example 380, 6-{[2,4-Difluoro-5-(7-morpholin-4-yl-quinazolin-4-yl)-phenyl]hydroxy-methyl}-1-methyl-1H-pyridin-2-one (Ena 2)], the IC50 was 0.5 to 5 µM. Still for that read-out and setting: to `OC(c1cc(-c2ncnc3cc(N4CCOCC4)ccc23)ccc1F)c1nccn2ccnc12` (stereo not drawn) [Example 372, [2-Fluoro-5-(7-morpholin-4-yl-quinazolin-4-yl)-phenyl]imidazo-[1,2-a]pyrazin-8-yl-methanol] belongs 0.5 to 5 µM; to `COc1cncnc1C(O)c1cc(-c2ncnc3cc(N4CCOCC4)ccc23)c(F)cc1Cl` (stereo not drawn) [Example 447, [2-Chloro-4-fluoro-5-(7-morpholin-4-yl-quinazolin-4-yl)-phenyl]-(5-methoxy-pyrimidin-4-yl)-methanol], 0.5 to 5 µM.

The same experiment, now with this note: Homo sapiens, HCT-116, phospho-serine 2056 DNA-PK, bleomycin-treated HCT116 cells; class symbols A-D; read-out: IC50 pDNA-PK.
For the molecule `OC(c1ccc(F)c(-c2ncnc3cc(C4=CCOCC4)ccc23)c1)c1nccs1` (stereo not drawn) [Example 139, {3-[7-(3,6-Dihydro-2H-pyran-4-yl)-quinazolin-4-yl]-4-fluoro-phenyl}-thiazol-2-ylmethanol], the IC50 was in the range of 10 to 30 µM. The same measure, in the same setting: with `OC(c1cccc(-c2ncnc3cc(N4CCOCC4)ccc23)c1)c1nccs1` (stereo not drawn) [Example 150, [3-(7-Morpholin-4-ylquinazolin-4-yl)-phenyl]thiazol-2-yl-methanol] the figure was 5 to 10 µM; with `N#Cc1ccc(C(O)c2cc(-c3ncnc4cc(N5CCOCC5)ccc34)c(F)cc2Cl)nn1` (stereo not drawn) [Example 118, 6-{[2-Chloro-4-fluoro-5-(7-morpholin-4-yl-quinazolin-4-yl)-phenyl]hydroxy-methyl}pyridazine-3-carbonitrile], 0.5 to 5 µM. On the same count and under the same terms, with `NC(=O)COc1ccc(C(O)c2cc(-c3ncnc4cc(N5CCOCC5)ccc34)c(F)cc2Cl)nn1` (stereo not drawn) [Example 111, 2-(6-{[2-Chloro-4-fluoro-5-(7-morpholin-4-yl-quinazolin-4-yl)-phenyl]hydroxy-methyl}pyridazin-3-yloxy)acetamide] the figure was 5 to 10 µM; with `OC(c1nccs1)c1cc(-c2ncnc3cc(N4CCOCC4)ccc23)ccc1F` (stereo not drawn) [Example 170, [2-Fluoro-5-(7-morpholin-4-yl-quinazolin-4-yl)-phenyl]thiazol-2-yl-methanol], 5 to 10 µM; with `Cc1nc(C(O)c2cnc(F)c(-c3ncnc4cc(N5CCOCC5)ncc34)c2)sc1C` (stereo not drawn) [Example 196, (4,5-Dimethyl-thiazol-2-yl)-[6-fluoro-5-(7-morpholin-4-yl-pyrido[4,3-d}-pyrimidin-4-yl)-pyridin-3-yl]-methanol], 10 to 30 µM.

Staying with this experiment, now noted: Homo sapiens, HCT-116, phospho-serine 2056 DNA-PK, bleomycin-treated HCT116 cells; read-out: IC50 pDNA-PK.
`OC(c1ccc(F)c(-c2ncnc3cc(N4CCOCC4)ccc23)c1)c1nncc2ccsc12` (stereo not drawn) [Example 332, [4-Fluoro-3-(7-morpholin-4-yl-quinazolin-4-yl)-phenyl]thieno[2,3-d}-pyridazin-7-yl-]: the half-inhibitory concentration (IC50) is < 0.5 µM. The same measure, in the same setting: to `OC(c1cc(-c2ncnc3cc(N4CCOCC4)ccc23)c(F)cc1Cl)c1nccn2cccc12` (stereo not drawn) [Example 359, [2-Chloro-4-fluoro-5-(7-morpholin-4-yl-quinazolin-4-yl)-phenyl]pyrrolo[1,2-a]-pyrazin-1-ylmethanol] belongs < 0.5 µM; to `NC(=O)C(c1cncc(Cl)c1)c1ccc(F)c(-c2ncnc3cc(N4CCOCC4)ccc23)c1` (stereo not drawn) [Example 297, 2-(5-Chloro-pyridin-3-yl)-2-[4-fluoro-3-(7-morpholin-4-yl-quinazolin-4-yl)-phenyl]acetamide], 10 to 30 µM. The same measure, in the same setting: to `COc1ccc(C(O)c2cc(-c3ncnc4cc(N5CCOCC5)ccc34)ccc2F)nn1` (stereo not drawn) [Example 357, [2-Fluoro-5-(7-morpholin-4-yl-quinazolin-4-yl)-phenyl]-(6-methoxy-pyridazin-3-yl)-methanol] belongs 0.5 to 5 µM. On the same count and under the same terms, to `OC(c1cc(-c2ncnc3cc(N4CCOCC4)ccc23)ccc1Cl)c1nccn2cccc12` (stereo not drawn) [Example 361, [2-Chloro-5-(7-morpholin-4-yl-quinazolin-4-yl)-phenyl]pyrrolo[1,2-a]-pyrazin-1-ylmethanol] belongs 0.5 to 5 µM; to `Cc1cc(C(O)c2ccc(F)c(-c3ncnc4cc(N5CCOCC5)ccc34)c2)n(C)c(=O)c1` (stereo not drawn) [Example 340, 6-{[4-Fluoro-3-(7-morpholin-4-yl-quinazolin-4-yl)-phenyl]hydroxy-methyl}-1,4-dimethyl-1H-pyridin-2-one], 0.5 to 5 µM. As to `Cc1nccnc1C(C(N)=O)c1cc(-c2ncnc3cc(N4CCOCC4)ccc23)ccc1Cl` (stereo not drawn) [Example 303, 2-[2-Chloro-5-(7-morpholin-4-yl-quinazolin-4-yl)-phenyl]-2-(3-methyl-pyrazin-2-yl)-acetamide], the IC50 was 5 to 10 µM.

As for `NC(=O)C(c1cccnc1)c1cc(-c2ncnc3cc(N4CCOCC4)ccc23)c(F)cc1F` (stereo not drawn) [Example 294, 2-[2,4-Difluoro-5-(7-morpholin-4-yl-quinazolin-4-yl)-phenyl]-2-pyridin-3-ylacetamide], the IC50 lay in the range of 10 to 30 µM. Same read-out and setting: with `CNC(=O)C(c1cc(-c2ncnc3cc(N4CCOCC4)ccc23)c(F)cc1Cl)c1nccnc1OC` (stereo not drawn) [Example 229, 2-[2-Chloro-4-fluoro-5-(7-morpholin-4-yl-quinazolin-4-yl)-phenyl]-2-(3-methoxypyrazin-2-yl)-N-methyl-acetamide] the figure was 0.5 to 5 µM.

Still in this experiment, the particulars now being: cellular DNA-PK phosphorylation at serine 2056, HCT116 cells; read-out: IC50 pDNA-PK.
For the molecule `COc1ccc(C(O)c2cc(-c3ncnc4cc(N5CCOCC5)ccc34)ccc2Cl)nn1` (stereo not drawn) [Example 460, [2-Chloro-5-(7-morpholin-4-yl-quinazolin-4-yl)-phenyl]-(6-methoxy-pyridazin-3-yl)-methanol], the 50% inhibitory concentration (IC50) is < 0.5 µM. On the same count and under the same terms, to `OC(c1ccc(F)c(-c2ncnc3cc(N4CCOCC4)ccc23)c1)c1nccnc1I` (stereo not drawn) [Example 462, [4-Fluoro-3-(7-morpholin-4-yl-quinazolin-4-yl)-phenyl]-(3-iodo-pyrazin-2-yl)-methanol] belongs < 0.5 µM.

The same experiment, now with this note: cellular; HCT116 cells, 10 μM bleomycin, six hours; read-out: IC50 pDNA-PK.
Consider `OC(c1ccc2nccn2n1)c1cc(-c2ncnc3cc(N4CCOCC4)ccc23)c(F)cc1F` (stereo not drawn) [Example 21, [2,4-Difluoro-5-(7-morpholin-4-yl-quinazolin-4-yl)phenyl]-imidazo[1,2-b]pyridazin-6-ylmethanol], for which the IC50 was < 0.5 µM. On the same count and under the same terms, to `Cn1nc(C(O)c2cc(-c3ncnc4cc(N5CCOCC5)ccc34)c(F)cc2Cl)ccc1=O` (stereo not drawn) [Example 45, 6-{[2-Chloro-4-fluoro-5-(7-morpholin-4-yl-quinazolin-4-yl)phenyl]-hydroxymethyl}-2-methyl-2H-pyridazin-3-one] belongs < 0.5 µM.

Staying with this experiment, now noted: phospho-serine 2056 DNA-PK, bleomycin-treated HCT116 cells; class symbols A-D; read-out: IC50 pDNA-PK.
As to `Cc1nc([C@H](O)c2cnc(F)c(-c3ncnc4cc(N5CCOCC5)ncc34)c2)sc1C` [Example 204, (R)-(4,5-Dimethyl-thiazol-2-yl)-[6-fluoro-5-(7-morpholin-4-yl-pyrido[4,3-d}-pyrimidin-4-yl)-pyridin-3-yl]-methanol], the half-inhibitory concentration (IC50) was in the range of 10 to 30 µM.

Staying with this experiment, now noted: phospho-serine 2056 DNA-PK, bleomycin-treated HCT116 cells; read-out: IC50 pDNA-PK.
As for `Cn1cnc2c(C(O)c3cc(-c4ncnc5cc(N6CCOCC6)ccc45)c(F)cc3F)ncnc21` (stereo not drawn) [Example 347, [2,4-Difluoro-5-(7-morpholin-4-yl-quinazolin-4-yl)-phenyl]-(9-methyl-9H-purin-6-yl)-methanol (Ena 1)], the IC50 lay in the range of 0.5 to 5 µM.

The IC50 is the concentration that inhibits the measured activity by half.
